Laboratory results: patent US20050209278A1, “Piperidinyl- and piperazinyl-sulfonylmethyl hydroxamic acids and their use as protease inhibitors” (priority 2002, published 2005)
Read-outs that look alike come from different tables or passages of the source.

Experiments:
MMP-9 = target: T1, MMP-9 (Homo sapiens, UniProt P14780); experiment: In vitro MMP inhibition, IC50 determination (fluorogenic substrate I); assay type: biochemical; conditions: read-out: MMP-9 (IC-50)
T1 construct: made in house; host or cells: MMP-9-transfected HT1080 cells (spent media)
T1 sequence (P14780 107-707 limits assumed): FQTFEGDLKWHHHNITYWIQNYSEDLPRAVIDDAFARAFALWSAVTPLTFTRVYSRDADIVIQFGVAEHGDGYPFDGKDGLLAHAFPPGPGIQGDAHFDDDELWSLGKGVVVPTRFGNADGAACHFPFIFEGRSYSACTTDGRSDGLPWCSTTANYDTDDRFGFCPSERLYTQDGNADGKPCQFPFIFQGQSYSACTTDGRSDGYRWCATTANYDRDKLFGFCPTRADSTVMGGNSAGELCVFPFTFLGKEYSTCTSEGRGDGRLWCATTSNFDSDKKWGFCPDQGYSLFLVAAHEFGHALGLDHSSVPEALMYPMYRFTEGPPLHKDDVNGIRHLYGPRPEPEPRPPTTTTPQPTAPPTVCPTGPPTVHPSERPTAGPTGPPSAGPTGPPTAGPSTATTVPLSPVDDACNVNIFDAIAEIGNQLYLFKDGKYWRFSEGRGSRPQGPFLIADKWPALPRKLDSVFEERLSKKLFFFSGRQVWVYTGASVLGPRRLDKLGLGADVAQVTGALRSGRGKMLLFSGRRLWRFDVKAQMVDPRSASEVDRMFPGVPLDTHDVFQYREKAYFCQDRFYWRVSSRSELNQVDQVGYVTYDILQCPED

MMP-13 = target: T2, MMP-13 (Homo sapiens, UniProt P45452); experiment: as above; assay type: biochemical; conditions: read-out: MMP-13 (IC-50)
T2 construct: made in house; host or cells: baculovirus / insect cells

SMILES	IC50 (MMP-9; value in parenthesis) [nM]	IC50 (MMP-13; value in parenthesis) [nM]	IC50 (MMP-9; value in parentheses) [nM]	IC50 (MMP-13; value in parentheses) [nM]
CCOCCCc1ccc(N2CCN(S(=O)(=O)C3(C(=O)NO)CCN(CCOC)CC3)CC2)cc1 [Example 179]	3.39	0.53		
COCCCc1ccc(N2CCN(S(=O)(=O)C3(C(=O)NO)CCN(CCOC)CC3)CC2)cc1 [Example 180]	2.25	1.21		
COCCN1CCC(C(=O)NO)(S(=O)(=O)N2CCN(c3ccc(CC4CCCCC4)cc3)CC2)CC1 [Example 181]	45.6	18		
COCCN1CCC(C(=O)NO)(S(=O)(=O)N2CCN(c3ccc(CCC4CCCC4)cc3)CC2)CC1 [Example 182]	1.72	0.14		
COCCN1CCC(C(=O)NO)(S(=O)(=O)N2CCN(c3ccc(CC4CCC4)cc3)CC2)CC1 [Example 183]	1.67	2.76		
CCOc1ccc(N2CCN(S(=O)(=O)C3(C(=O)NO)CCN(CCOC)CC3)CC2)cc1F [Example 184]	2.79	2.26		
CCCOc1ccc(N2CCN(S(=O)(=O)C3(C(=O)NO)CCN(CCOC)CC3)CC2)cc1F [Example 185]	1.19	1.63		
COCCN1CCC(C(=O)NO)(S(=O)(=O)N2CCN(c3ccc(C#N)cc3)CC2)CC1 [Example 186]	55.8	2.63		
CCc1cnc(N2CCN(S(=O)(=O)C3(C(=O)NO)CCN(CCOC)CC3)CC2)nc1 [Example 187]	155	47.3		
CCC(CC)Cc1ccc(N2CCN(S(=O)(=O)C3(C(=O)NO)CCN(CCOC)CC3)CC2)cc1 [Example 188]	33.7	4.01		
CCCCOc1ccc(N2CCN(S(=O)(=O)C3(C(=O)NO)CCN(C(=O)CCC)CC3)CC2)cc1 [Example 290]			1.42	0.35
